Test system: participants with SSc-RP
Experiment: SHAQ - Visual Analog Scale - Intestinal Problems
Format: in vivo, human
Design: Visual Analog Scale-Intestinal Problems, In Clinic Visit (Day 12), Mean / Visual Analog Scale-Intestinal Problems, In Clinic Visit (Day 12), Median / Visual Analog Scale-Intestinal Problems, Change from Baseline, Mean / Visual Analog Scale-Intestinal Problems, Change from Baseline, Median / SHAQ Visual Analogue Scale - Intestinal Problems, In-Clinic Visit (Day 12), Median: scale not given here
Source text: The standard, validated, patient reported outcome measures tool for SSc patients, the Scleroderma Health Assessment Questionnaire (SHAQ), will be used to assess the participant qualify of life. Details are attached in the Appendix. The participant quality of life will be scored, and a disability index calculated for each questionnaire completed by the patient at Screening and each in-clinic visit. The absolute change in participant quality of life from baseline to the end of each dosing period will be calculated similar to frequency data as before.
The standard, validated, patient reported outcome measures tool for SSc patients, the SHAQ, was collected at the time points specified in the study schedules (FIG. 2 and FIGS. 4A and 4B) to assess the participant's quality of life. The SHAQ included a Raynaud's VAS that will also be reported separately.

[1] = Modified ITT Population-Part A, Day 12, dose cilnidipine 10 mg, tadalafil 5 mg, alone or combined as labelled
[2] = Tadalafil 5 mg, SSc patients, PP, Part A
[3] = Any Cilnidipine (N = 17), Day 12, PP Population, Part A
[4] = Cilnidipine 10 mg, SSc patients, PP, Part A
[5] = Cilnidipine 20 mg, SSc patients, PP, Part A
[6] = Modified ITT Population-Part A, Day 12, dose cilnidipine 20 mg, tadalafil 5 mg, alone or combined as labelled
[7] = Modified ITT Population-Part A, dose cilnidipine 10 mg, tadalafil 5 mg, alone or combined as labelled
[8] = Pooled Cilnidipine (N = 8), Day 12, PP Population, Part A
[9] = pooled Cilnidipine 10 mg and Cilnidipine 10 mg + Tadalafil 5 mg
[10] = pooled Cilnidipine 20 mg and Cilnidipine 20 mg + Tadalafil 5 mg
[11] = pooled cilnidipine 10 mg and 20 mg arms (combination: + tadalafil 5 mg)

## CN1CC(=O)N2[C@H](c3ccc4c(c3)OCO4)c3[nH]c4ccccc4c3C[C@@H]2C1=O [Tadalafil]
[1]
  Visual Analog Scale-Intestinal Problems, Change from Baseline, Median: 0.000
  Visual Analog Scale-Intestinal Problems, Percent Change from Baseline, Median: 0.00%
[2]
  SHAQ VAS Intestinal Problems, Change from Baseline, Max: 1.80
  SHAQ VAS Intestinal Problems, Change from Baseline, Median: 0.000
  SHAQ VAS Intestinal Problems, Change from Baseline, Min: −2.30,
  SHAQ VAS Intestinal Problems, Change from Baseline, Q1: −1.150,
  SHAQ VAS Intestinal Problems, Change from Baseline, Q3: 0.900
  SHAQ VAS Intestinal Problems, Day 12, Max: 9.20
  SHAQ VAS Intestinal Problems, Day 12, Mean: 3.025
  SHAQ VAS Intestinal Problems, Day 12, Median: 1.450
  SHAQ VAS Intestinal Problems, Day 12, Min: 0.00,
  SHAQ VAS Intestinal Problems, Day 12, Q1: 0.050,
  SHAQ VAS Intestinal Problems, Day 12, Q3: 6.000
  SHAQ VAS Intestinal Problems, Percent Change from Baseline, Max: 24.3
  SHAQ VAS Intestinal Problems, Percent Change from Baseline, Mean: −6.92
  SHAQ VAS Intestinal Problems, Percent Change from Baseline, Median: 0.00
  SHAQ VAS Intestinal Problems, Percent Change from Baseline, Min: −45.1,
  SHAQ VAS Intestinal Problems, Percent Change from Baseline, Q1: −45.10,
  SHAQ VAS Intestinal Problems, Percent Change from Baseline, Q3: 24.32

## COCCOC(=O)C1=C(C)NC(C)=C(C(=O)OC/C=C/c2ccccc2)C1c1cccc([N+](=O)[O-])c1 (stereo not shown) [Cilnidipine]
[3]
  SHAQ Visual Analogue Scale - Intestinal Problems, Change from Baseline, Mean (SD): −0.556 (1.7427)
  SHAQ Visual Analogue Scale - Intestinal Problems, Change from Baseline, Median: −0.100
  SHAQ Visual Analogue Scale - Intestinal Problems, In-Clinic Visit (Day 12), Mean (SD): 1.121 (1.4119)
  SHAQ Visual Analogue Scale - Intestinal Problems, In-Clinic Visit (Day 12), Median: 0.600
  SHAQ Visual Analogue Scale - Intestinal Problems, Percent Change from Baseline, Mean (SD): −18.65 (93.767) %
  SHAQ Visual Analogue Scale - Intestinal Problems, Percent Change from Baseline, Median: −54.13%
[4]
  SHAQ VAS Intestinal Problems, Change from Baseline, Max: 0.00
  SHAQ VAS Intestinal Problems, Change from Baseline, Median: −1.550
  SHAQ VAS Intestinal Problems, Change from Baseline, Min: −4.40,
  SHAQ VAS Intestinal Problems, Change from Baseline, Q1: −3.700,
  SHAQ VAS Intestinal Problems, Change from Baseline, Q3: −0.050
  SHAQ VAS Intestinal Problems, Day 12, Max: 3.80
  SHAQ VAS Intestinal Problems, Day 12, Mean: 1.100
  SHAQ VAS Intestinal Problems, Day 12, Median: 0.300
  SHAQ VAS Intestinal Problems, Day 12, Min: 0.00,
  SHAQ VAS Intestinal Problems, Day 12, Q1: 0.000,
  SHAQ VAS Intestinal Problems, Day 12, Q3: 2.200
  SHAQ VAS Intestinal Problems, Percent Change from Baseline, Max: −44.1
  SHAQ VAS Intestinal Problems, Percent Change from Baseline, Median: −88.00
  SHAQ VAS Intestinal Problems, Percent Change from Baseline, Min: −100.0,
  SHAQ VAS Intestinal Problems, Percent Change from Baseline, Q1: −100.00,
  SHAQ VAS Intestinal Problems, Percent Change from Baseline, Q3: −44.12
[5]
  SHAQ VAS Intestinal Problems, Change from Baseline, Max: 0.60
  SHAQ VAS Intestinal Problems, Change from Baseline, Mean: 0.150
  SHAQ VAS Intestinal Problems, Change from Baseline, Median: 0.150
  SHAQ VAS Intestinal Problems, Change from Baseline, Min: −0.30,
  SHAQ VAS Intestinal Problems, Change from Baseline, Q1: −0.150,
  SHAQ VAS Intestinal Problems, Change from Baseline, Q3: 0.450
  SHAQ VAS Intestinal Problems, Day 12, Max: 2.10
  SHAQ VAS Intestinal Problems, Day 12, Mean: 0.850
  SHAQ VAS Intestinal Problems, Day 12, Median: 0.650
  SHAQ VAS Intestinal Problems, Day 12, Min: 0.00,
  SHAQ VAS Intestinal Problems, Day 12, Q1: 0.000,
  SHAQ VAS Intestinal Problems, Day 12, Q3: 1.700
  SHAQ VAS Intestinal Problems, Percent Change from Baseline, Max: 40.0
  SHAQ VAS Intestinal Problems, Percent Change from Baseline, Mean: −10.00
  SHAQ VAS Intestinal Problems, Percent Change from Baseline, Min: −100.0,
  SHAQ VAS Intestinal Problems, Percent Change from Baseline, Q1: −100.00,
  SHAQ VAS Intestinal Problems, Percent Change from Baseline, Q3: 40.00
Cilnidipine, pooled, n = 7 (in column Cilnidipine 20 mg), minus = improvement, Table A*
  SHAQ Intestinal Difficulty, mean % change: −45% (pooled,
[1]
  Visual Analog Scale-Intestinal Problems, Percent Change from Baseline, Median: −88.00%
[6]
  Visual Analog Scale-Intestinal Problems, Change from Baseline, Mean: 0.300
  Visual Analog Scale-Intestinal Problems, Change from Baseline, Median: 0.300
  Visual Analog Scale-Intestinal Problems, Percent Change from Baseline, Mean: 35.00%
  Visual Analog Scale-Intestinal Problems, Percent Change from Baseline, Median: 35.00%
[7]
  Visual Analog Scale-Intestinal Problems, In Clinic Visit (Day 12), Mean: 1.100
  Visual Analog Scale-Intestinal Problems, In Clinic Visit (Day 12), Median: 0.300
Modified ITT Population-Part A, dose cilnidipine 20 mg, tadalafil 5 mg, alone or combined as labelled
  Visual Analog Scale-Intestinal Problems, In Clinic Visit (Day 12), Median: 1.300
Pooled Cilnidipine 10 mg and Cilnidipine 10 mg + Tadalafil 5 mg (N = 9), Day 12, PP Population, Part A
  SHAQ Visual Analogue Scale - Intestinal Problems, In-Clinic Visit (Day 12), Median: 0.700
Pooled Cilnidipine 20 mg and Cilnidipine 20 mg + Tadalafil 5 mg (N = 8), Day 12, PP Population, Part A
  SHAQ Visual Analogue Scale - Intestinal Problems, In-Clinic Visit (Day 12), Median: 0.100
[8]
  SHAQ Visual Analogue Scale - Intestinal Problems, Change from Baseline, Mean (SD): −0.863 (1.8110)
  SHAQ Visual Analogue Scale - Intestinal Problems, In-Clinic Visit (Day 12), Mean (SD): 0.975 (1.3781)
  SHAQ Visual Analogue Scale - Intestinal Problems, Percent Change from Baseline, Mean (SD): −43.69 (64.404) %
Pooled cilnidipine (n=5)
  % Δ from baseline, Intestinal Problems mean: −32.4%
[9]
  VAS Intestinal Problems Change from Baseline Max: 1.00
  VAS Intestinal Problems Change from Baseline Mean: −1.228
  VAS Intestinal Problems Change from Baseline Median: −0.250
  VAS Intestinal Problems Change from Baseline Min: −4.40,
  VAS Intestinal Problems Change from Baseline Q1: −3.000,
  VAS Intestinal Problems Change from Baseline Q3: 0.000
  VAS Intestinal Problems Day 12 Max: 3.80
  VAS Intestinal Problems Day 12 Median: 0.700
  VAS Intestinal Problems Day 12 Min: 0.00,
  VAS Intestinal Problems Day 12 Q1: 0.000,
  VAS Intestinal Problems Day 12 Q3: 1.900
  VAS Intestinal Problems Percent Change from Baseline Max: 142.9%
  VAS Intestinal Problems Percent Change from Baseline Mean: −27.93%
  VAS Intestinal Problems Percent Change from Baseline Min: −100.0, %
  VAS Intestinal Problems Percent Change from Baseline Q1: −94.00, %
  VAS Intestinal Problems Percent Change from Baseline Q3: 15.00%
[10]
  VAS Intestinal Problems Change from Baseline Max: 2.90
  VAS Intestinal Problems Change from Baseline Median: 0.000
  VAS Intestinal Problems Change from Baseline Min: −1.60,
  VAS Intestinal Problems Change from Baseline Q1: −0.300,
  VAS Intestinal Problems Change from Baseline Q3: 0.600
  VAS Intestinal Problems Day 12 Max: 4.50
  VAS Intestinal Problems Day 12 Median: 0.200
  VAS Intestinal Problems Day 12 Min: 0.00,
  VAS Intestinal Problems Day 12 Q1: 0.000,
  VAS Intestinal Problems Day 12 Q3: 2.100
  VAS Intestinal Problems Percent Change from Baseline Max: 181.3%
  VAS Intestinal Problems Percent Change from Baseline Median: 30.00%
  VAS Intestinal Problems Percent Change from Baseline Min: −100.0, %
  VAS Intestinal Problems Percent Change from Baseline Q1: −88.89, %
  VAS Intestinal Problems Percent Change from Baseline Q3: 40.00%
[11]
  VAS Intestinal Problems Change from Baseline Max: 0.60
  VAS Intestinal Problems Change from Baseline Median: 0.000
  VAS Intestinal Problems Change from Baseline Min: −4.40,
  VAS Intestinal Problems Change from Baseline Q1: −3.000,
  VAS Intestinal Problems Change from Baseline Q3: 0.300
  VAS Intestinal Problems Day 12 Max: 3.80
  VAS Intestinal Problems Day 12 Median: 0.600
  VAS Intestinal Problems Day 12 Min: 0.00,
  VAS Intestinal Problems Day 12 Q1: 0.000,
  VAS Intestinal Problems Day 12 Q3: 2.100
  VAS Intestinal Problems Percent Change from Baseline Max: 40.0%
  VAS Intestinal Problems Percent Change from Baseline Min: −100.0, %
  VAS Intestinal Problems Percent Change from Baseline Q1: −88.00, %
  VAS Intestinal Problems Percent Change from Baseline Q3: 30.00%

Source: patent US20240358692A1, “TREATMENT OF SCLERODERMA” (Aisa Pharma, Inc., priority 2023, published 2024)
